system: recombinant guanylate cyclase reporter cell line; assay: Action at recombinant guanylate cyclase reporter cell line (CHO reporter cell); type: cell-based; conditions: MEC = minimal effective concentration; read-out: sGC-activating activity in the CHO reporter cell in vitro, MEC
Procedure: The cellular action of the compounds according to the invention is determined at a recombinant guanylate cyclase reporter cell line, as described in F. Wunder et al., Anal. Biochem. 339, 104-112 (2005).

| SMILES | minimal effective concentration |
| --- | --- |
| C[C@H]([C@H](C(=O)Nc1cc([C@H](CC(=O)O)C(F)(F)F)ccc1Cl)c1ccc(Cl)cc1)C(F)(F)F (single isomer, unassigned) [Example 84] | 0.001 µM |
| C[C@H](C(C(=O)Nc1cc(C2(CC(=O)O)CCC2)ccc1Cl)c1ccc(Cl)cc1)C(F)(F)F (stereo partly drawn) [Example 28, [1-(4-Chloro-3-{[(3R)-2-(4-chlorophenyl)-4,4,4-trifluoro-3-methylbutanoyl]amino}-phenyl)cyclobutyl]acetic acid] | 0.001 µM |
| CC(C(=O)O)C(C)c1ccc(F)c(NC(=O)[C@H](c2ccc(Cl)cc2)[C@@H](C)C(F)(F)F)c1 (stereo partly drawn) [Example 50, threo-3-(3-{[(2S,3R)-2-(4-chlorophenyl)-4,4,4-tri-fluoro-3-methylbutanoyl]amino}-4-fluorophenyl)-2-methylbutanoic acid] | 0.03 µM |
| C[C@H]([C@H](C(=O)Nc1cc(CCC(=O)O)ccc1Cl)c1ccc(C(C)(C)C)cc1)C(F)(F)F [Example 2, (+)-3-(3-{[(2S,3R)-2-(4-tert-butylphenyl)-4,4,4-trifluoro-3-methylbutanoyl]amino}-4-chlorophenyl)-propanoic acid] | 0.0003 µM |
| C[C@H]([C@H](C(=O)Nc1cc(C[C@H](C)C(=O)O)ccc1Cl)c1ccc(C2CC(F)(F)C2)cc1)C(F)(F)F [Example 100] | 0.003 µM |
| C[C@H]([C@H](C(=O)Nc1cc(C2(CC(=O)O)CCC2)ccc1Cl)c1ccc(Cl)cc1)C(F)(F)F [Example 90] | 0.001 µM |
| C[C@@H](Cc1ccc(Cl)c(NC(=O)C(c2ccc(Cl)cc2)C2CCC(F)(F)C2)c1)C(=O)O (single isomer, unassigned) [Example 105] | 0.03 µM |
| C[C@H]([C@H](C(=O)Nc1cc(C2(CC(=O)O)CC(F)(F)C2)ccc1Cl)c1ccc(Cl)cc1)C(F)(F)F [Example 102] | 0.001 µM |
| CCC[C@@H](CC(=O)O)c1ccc(Cl)c(NC(=O)[C@H](c2ccc(Cl)cc2)[C@@H](C)C(F)(F)F)c1 (single isomer, unassigned) [Example 82] | 0.00023 µM |
| CC[C@@H](Cc1ccc(Cl)c(NC(=O)[C@H](c2ccc(Cl)cc2)[C@@H](C)C(F)(F)F)c1)C(=O)O [Example 30, (+)-(2S)-2-(4-Chloro-3-{[(2S,3R)-2-(4-chlorophenyl)-4,4,4-trifluoro-3-methylbutanoyl]amino}-benzyl)butanoic acid] | 0.0003 µM |
| CCC(C)(Cc1ccc(Cl)c(NC(=O)[C@H](c2ccc(Cl)cc2)[C@@H](C)C(F)(F)F)c1)C(=O)O (single isomer, unassigned; (+)) [Example 71] | 0.01 µM |
| CCc1ccc([C@@H](C(=O)Nc2cc(C(C)CC(=O)O)ccc2Cl)[C@@H](C)C(F)(F)F)cc1 (stereo partly drawn) [Example 7, 3-(4-chloro-3-{[(2S,3R)-2-(4-ethylphenyl)-4,4,4-tri-fluoro-3-methylbutanoyl]amino}phenyl)butanoic acid] | 0.0002 µM |
| CC(C(C(=O)Nc1cc(C[C@H](C)C(=O)O)ccc1Cl)c1ccc(CC(F)(F)F)cc1)C(F)(F)F (stereo partly shown) [Example 99] | 0.01 µM |
| C[C@H]([C@H](C(=O)Nc1cc(C2(CC(=O)O)CC2)ccc1F)c1ccc(Cl)cc1)C(F)(F)F [Example 18, (+)-[1-(3-{[(2S,3R)-2-(4-Chlorophenyl)-4,4,4-trifluoro-3-methylbutanoyl]amino}-4-fluorophenyl)-cyclopropyl]acetic acid] | 0.01 µM |
| C[C@H]([C@H](C(=O)Nc1cc(C2(CC(=O)O)CC2)ccc1Cl)c1ccc(Cl)cc1)C(F)(F)F [Example 96] | 0.001 µM |
| C[C@@H](CC(=O)O)c1ccc(Cl)c(NC(=O)C(c2ccc(Cl)cc2)C2CCCC2(F)F)c1 (stereo partly drawn) [Example 10, (3S)-3-(4-chloro-3-{[(4-chlorophenyl)(2,2-difluoro-cyclopentyl)acetyl]amino}phenyl)butanoic acid] | 0.0052 µM |
| CC(Cc1ccc(F)c(NC(=O)C(c2ccc(Cl)cc2)[C@@H](C)C(F)(F)F)c1)C(=O)O (stereo partly drawn) [Example 37, 3-(3-{[(3R)-2-(4-Chlorophenyl)-4,4,4-trifluoro-3-methylbutanoyl]amino}-4-fluorophenyl)-2-methylpropanoic acid] | 0.01 µM |
| CC[C@@H](CC(=O)O)c1ccc(Cl)c(NC(=O)[C@H](c2ccc(Cl)cc2)[C@@H](C)C(F)(F)F)c1 (single isomer, unassigned) [Example 87] | 0.001 µM |
| C[C@H]([C@H](C(=O)Nc1cc(CCC(=O)O)ccc1Cl)c1ccc(CC(F)(F)F)cc1)C(F)(F)F (racemic) [Example 5, 3-[4-Chloro-3-({4,4,4-trifluoro-3-methyl-2-[4-(2,2,2-trifluoroethyl)phenyl]butanoyl}amino)phenyl]-propanoic acid] | 0.003 µM |
| C[C@H]([C@H](C(=O)Nc1cc(C2CC2C(=O)O)ccc1F)c1ccc(Cl)cc1)C(F)(F)F (single isomer, unassigned) [Example 53] | 0.3 µM |
| CCCC(CC(=O)O)c1ccc(Cl)c(NC(=O)[C@H](c2ccc(Cl)cc2)[C@@H](C)C(F)(F)F)c1 (stereo partly drawn) [Example 81, 3-(4-Chloro-3-{[(2S,3R)-2-(4-chlorophenyl)-4,4,4-trifluoro-3-methylbutanoyl]amino}phenyl)-hexanoic acid] | 0.0003 µM |
| C[C@H]([C@H](C(=O)Nc1cc(CC(C)(C)C(=O)O)ccc1Cl)c1ccc(Cl)cc1)C(F)(F)F [Example 89] | 0.003 µM |
